Results taken from the NIST ThermoML archive (doi:10.1021/acs.jced.6b00460).
Numbers after ± are expanded uncertainties.

Assay: xn = mol fraction of the nth substance listed
Settings: 101 kPa, Liquid; for speed of sound: Sing-around technique in a fixed-path interferometer; for mass density: Vibrating tube method

For CCCCCCCC[n+]1ccccc1.[Cl-] [N-octylpyridinium chloride] + O, which speed of sound (308.15 K, x2 = 0.0625) is on record?
The speed of sound was 1483.2 ± 2.6 m/s.

What about the speed of sound (308.15 K, x2 = 0.1156) of the same compound?
The speed of sound was 1484.1 ± 2.5 m/s.

And the speed of sound (308.15 K, x2 = 0.2085)?
Its speed of sound is 1485.3 ± 2.4 m/s.

And the speed of sound (308.15 K, x2 = 0.2545)?
Its speed of sound is 1486.2 ± 2.3 m/s.

What about the speed of sound (308.15 K, x2 = 0.306) of the same compound?
The speed of sound was 1488 ± 2.3 m/s.

What about the speed of sound (308.15 K, x2 = 0.4127) of the same compound?
Its speed of sound is 1491.7 ± 2.1 m/s.

And the speed of sound (308.15 K, x2 = 0.4534)?
The speed of sound was 1493.7 ± 2.1 m/s.

What about the speed of sound (308.15 K, x2 = 0.4995) of the same compound?
The speed of sound was 1495 ± 2.1 m/s.

And the speed of sound (308.15 K, x2 = 0.6103)?
The speed of sound was 1499.8 ± 2 m/s.

What about the speed of sound (308.15 K, x2 = 0.6508) of the same compound?
Its speed of sound is 1501.8 ± 1.9 m/s.

What about the speed of sound (308.15 K, x2 = 0.6962) of the same compound?
The speed of sound was 1504.9 ± 1.9 m/s.

And the speed of sound (308.15 K, x2 = 0.7542)?
Its speed of sound is 1507.1 ± 1.9 m/s.

And the speed of sound (308.15 K, x2 = 0.8086)?
Its speed of sound is 1509.4 ± 1.8 m/s.

What about the speed of sound (308.15 K, x2 = 0.8512) of the same compound?
Its speed of sound is 1511.3 ± 1.8 m/s.

What about the speed of sound (308.15 K, x2 = 0.9009) of the same compound?
The speed of sound was 1513.2 ± 1.8 m/s.

What about the speed of sound (308.15 K, x2 = 0.9485) of the same compound?
Its speed of sound is 1515.5 ± 1.8 m/s.

And the mass density (308.15 K, x2 = 0.0625)?
Its mass density is 1128.68 ± 2.2 kg/m3.

What about the mass density (308.15 K, x2 = 0.1156) of the same compound?
The mass density was 1128.57 ± 2.2 kg/m3.

And the mass density (308.15 K, x2 = 0.2085)?
Its mass density is 1128.29 ± 2.1 kg/m3.

And the mass density (308.15 K, x2 = 0.2545)?
Its mass density is 1128.08 ± 2.1 kg/m3.

And the mass density (308.15 K, x2 = 0.306)?
Its mass density is 1127.76 ± 2.1 kg/m3.

And the mass density (308.15 K, x2 = 0.4127)?
The mass density was 1126.71 ± 2 kg/m3.

What about the mass density (308.15 K, x2 = 0.4534) of the same compound?
The mass density was 1126.09 ± 2 kg/m3.

What about the mass density (308.15 K, x2 = 0.4995) of the same compound?
Its mass density is 1125.19 ± 2 kg/m3.

What about the mass density (308.15 K, x2 = 0.6103) of the same compound?
The mass density was 1121.68 ± 2 kg/m3.

What about the mass density (308.15 K, x2 = 0.6508) of the same compound?
Its mass density is 1119.68 ± 2 kg/m3.

What about the mass density (308.15 K, x2 = 0.6962) of the same compound?
Its mass density is 1116.7 ± 2 kg/m3.

What about the mass density (308.15 K, x2 = 0.7542) of the same compound?
The mass density was 1111.3 ± 2 kg/m3.

And the mass density (308.15 K, x2 = 0.8086)?
The mass density was 1103.65 ± 2 kg/m3.

And the mass density (308.15 K, x2 = 0.8512)?
Its mass density is 1094.75 ± 2 kg/m3.

And the mass density (308.15 K, x2 = 0.9009)?
The mass density was 1078.75 ± 2 kg/m3.

And the mass density (308.15 K, x2 = 0.9485)?
The mass density was 1052.47 ± 2 kg/m3.

What about the speed of sound (318.15 K, x2 = 0.0625) of the same compound?
The speed of sound was 1452.1 ± 2.6 m/s.

And the speed of sound (318.15 K, x2 = 0.1156)?
The speed of sound was 1453.2 ± 2.5 m/s.

What about the speed of sound (318.15 K, x2 = 0.2085) of the same compound?
Its speed of sound is 1456.7 ± 2.4 m/s.

What about the speed of sound (318.15 K, x2 = 0.2545) of the same compound?
Its speed of sound is 1458.4 ± 2.3 m/s.

And the speed of sound (318.15 K, x2 = 0.306)?
Its speed of sound is 1461.8 ± 2.3 m/s.

What about the speed of sound (318.15 K, x2 = 0.4127) of the same compound?
Its speed of sound is 1464.8 ± 2.1 m/s.

What about the speed of sound (318.15 K, x2 = 0.4534) of the same compound?
The speed of sound was 1466.1 ± 2.1 m/s.

What about the speed of sound (318.15 K, x2 = 0.4995) of the same compound?
The speed of sound was 1469.4 ± 2.1 m/s.

And the speed of sound (318.15 K, x2 = 0.6103)?
The speed of sound was 1473.8 ± 2 m/s.

And the speed of sound (318.15 K, x2 = 0.6508)?
The speed of sound was 1477.2 ± 1.9 m/s.

What about the speed of sound (318.15 K, x2 = 0.6962) of the same compound?
The speed of sound was 1481.8 ± 1.9 m/s.

And the speed of sound (318.15 K, x2 = 0.7542)?
Its speed of sound is 1487.1 ± 1.9 m/s.

And the speed of sound (318.15 K, x2 = 0.8086)?
The speed of sound was 1493.7 ± 1.8 m/s.

And the speed of sound (318.15 K, x2 = 0.8512)?
Its speed of sound is 1497.9 ± 1.8 m/s.

What about the speed of sound (318.15 K, x2 = 0.9009) of the same compound?
The speed of sound was 1505.5 ± 1.8 m/s.

What about the speed of sound (318.15 K, x2 = 0.9485) of the same compound?
The speed of sound was 1515.2 ± 1.8 m/s.

What about the mass density (318.15 K, x2 = 0.0625) of the same compound?
Its mass density is 1122.77 ± 2.2 kg/m3.

What about the mass density (318.15 K, x2 = 0.1156) of the same compound?
The mass density was 1122.56 ± 2.2 kg/m3.

What about the mass density (318.15 K, x2 = 0.2085) of the same compound?
The mass density was 1122.18 ± 2.1 kg/m3.

What about the mass density (318.15 K, x2 = 0.2545) of the same compound?
The mass density was 1121.95 ± 2.1 kg/m3.

What about the mass density (318.15 K, x2 = 0.306) of the same compound?
The mass density was 1121.63 ± 2.1 kg/m3.

What about the mass density (318.15 K, x2 = 0.4127) of the same compound?
The mass density was 1120.54 ± 2 kg/m3.

What about the mass density (318.15 K, x2 = 0.4534) of the same compound?
The mass density was 1119.9 ± 2 kg/m3.

What about the mass density (318.15 K, x2 = 0.4995) of the same compound?
Its mass density is 1118.95 ± 2 kg/m3.

And the mass density (318.15 K, x2 = 0.6103)?
The mass density was 1115.24 ± 2 kg/m3.

What about the mass density (318.15 K, x2 = 0.6508) of the same compound?
Its mass density is 1113.12 ± 2 kg/m3.

What about the mass density (318.15 K, x2 = 0.6962) of the same compound?
The mass density was 1110.01 ± 2 kg/m3.

What about the mass density (318.15 K, x2 = 0.7542) of the same compound?
The mass density was 1104.41 ± 2 kg/m3.

And the mass density (318.15 K, x2 = 0.8086)?
Its mass density is 1096.63 ± 2 kg/m3.

What about the mass density (318.15 K, x2 = 0.8512) of the same compound?
Its mass density is 1087.7 ± 2 kg/m3.

And the mass density (318.15 K, x2 = 0.9009)?
The mass density was 1071.93 ± 2 kg/m3.

What about the mass density (318.15 K, x2 = 0.9485) of the same compound?
Its mass density is 1046.38 ± 2 kg/m3.
